Reference: patent publication US20170190705A1, “Compositions and Methods for Inhibiting BMP” (THE BRIGHAM AND WOMAN'S HOSPITAL, INC., priority 2014, published 2017)

Legend:
Assay type in all cases: biochemical
JAK2 = JAK2 (Homo sapiens, UniProt O60674); test: Kinome profiling JAK2; details: read-out: Inhibitory activity JAK2; for inhibition at 0.1 µM: 100 nM
Protocol: (§1) . The kinome-wide selectivity was determined following the methods previously reported by Mohedas et al., ACS Chem Biol 2013, 8, 1291-1302 and Sanvitale et al., PLoS One 2013, 8, e62721.

KDR = KDR (Homo sapiens, UniProt P35968); test: Kinome profiling KDR; details: read-out: Inhibitory activity KDR; for inhibition at 0.1 µM: 100 nM
Protocol: as §1

AKT3 = AKT3 (Homo sapiens, UniProt Q9Y243); test: Kinome profiling AKT3; details: read-out: Inhibitory activity AKT3; for inhibition at 0.1 µM: 100 nM
Protocol: as §1

LTK = LTK (Homo sapiens, UniProt P29376); test: Kinome profiling LTK; details: read-out: Inhibitory activity LTK; for inhibition at 0.1 µM: 100 nM
Protocol: as §1

GSK3β = GSK3β (Homo sapiens, UniProt P49841); test: Kinome profiling GSK3β; details: read-out: Inhibitory activity GSK3β; for inhibition at 0.1 µM: 100 nM
Protocol: as §1

PHKγ1 = PHKγ1 (Homo sapiens, UniProt Q16816); test: Kinome profiling PHKγ1; details: read-out: Inhibitory activity PHKγ1; for inhibition at 0.1 µM: 100 nM
Protocol: as §1

FLT-3 = biological target: T1, FLT-3 (Homo sapiens, UniProt P36888); test: Kinome profiling FLT-3; details: read-out: Inhibitory activity FLT-3; for inhibition at 0.1 µM: 100 nM
T1 sequence (P36888 27-993): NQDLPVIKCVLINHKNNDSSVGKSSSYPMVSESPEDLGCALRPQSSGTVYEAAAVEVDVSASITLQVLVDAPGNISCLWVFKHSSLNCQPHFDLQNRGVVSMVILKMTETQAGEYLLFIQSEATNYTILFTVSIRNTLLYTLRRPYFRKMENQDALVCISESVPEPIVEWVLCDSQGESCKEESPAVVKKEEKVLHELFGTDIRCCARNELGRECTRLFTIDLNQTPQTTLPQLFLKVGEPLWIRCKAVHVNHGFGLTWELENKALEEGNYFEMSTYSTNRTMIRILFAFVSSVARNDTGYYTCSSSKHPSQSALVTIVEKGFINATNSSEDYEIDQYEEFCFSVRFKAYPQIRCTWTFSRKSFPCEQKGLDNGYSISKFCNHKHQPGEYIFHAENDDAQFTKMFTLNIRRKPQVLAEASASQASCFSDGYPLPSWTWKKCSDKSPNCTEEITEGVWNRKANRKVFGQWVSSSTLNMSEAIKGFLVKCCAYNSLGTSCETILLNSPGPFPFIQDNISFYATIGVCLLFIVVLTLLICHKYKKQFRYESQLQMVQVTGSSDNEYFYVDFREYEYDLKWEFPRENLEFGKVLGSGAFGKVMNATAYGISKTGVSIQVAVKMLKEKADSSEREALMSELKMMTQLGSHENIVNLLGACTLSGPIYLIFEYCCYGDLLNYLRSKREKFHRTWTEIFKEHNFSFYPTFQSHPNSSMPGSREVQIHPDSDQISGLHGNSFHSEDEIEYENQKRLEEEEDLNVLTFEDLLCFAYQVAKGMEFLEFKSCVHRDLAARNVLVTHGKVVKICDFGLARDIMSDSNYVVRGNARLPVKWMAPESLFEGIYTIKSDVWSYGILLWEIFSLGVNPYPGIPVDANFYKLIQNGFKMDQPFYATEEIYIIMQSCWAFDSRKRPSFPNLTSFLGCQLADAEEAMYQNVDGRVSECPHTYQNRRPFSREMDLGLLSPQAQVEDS
Protocol: as §1

IKK-α = biological target: T2, IKK-α (Homo sapiens, UniProt O15111); test: Kinome profiling IKK-α; details: read-out: Inhibitory activity IKK-α; for inhibition at 0.1 µM: 100 nM
T2 sequence (O15111 1-745): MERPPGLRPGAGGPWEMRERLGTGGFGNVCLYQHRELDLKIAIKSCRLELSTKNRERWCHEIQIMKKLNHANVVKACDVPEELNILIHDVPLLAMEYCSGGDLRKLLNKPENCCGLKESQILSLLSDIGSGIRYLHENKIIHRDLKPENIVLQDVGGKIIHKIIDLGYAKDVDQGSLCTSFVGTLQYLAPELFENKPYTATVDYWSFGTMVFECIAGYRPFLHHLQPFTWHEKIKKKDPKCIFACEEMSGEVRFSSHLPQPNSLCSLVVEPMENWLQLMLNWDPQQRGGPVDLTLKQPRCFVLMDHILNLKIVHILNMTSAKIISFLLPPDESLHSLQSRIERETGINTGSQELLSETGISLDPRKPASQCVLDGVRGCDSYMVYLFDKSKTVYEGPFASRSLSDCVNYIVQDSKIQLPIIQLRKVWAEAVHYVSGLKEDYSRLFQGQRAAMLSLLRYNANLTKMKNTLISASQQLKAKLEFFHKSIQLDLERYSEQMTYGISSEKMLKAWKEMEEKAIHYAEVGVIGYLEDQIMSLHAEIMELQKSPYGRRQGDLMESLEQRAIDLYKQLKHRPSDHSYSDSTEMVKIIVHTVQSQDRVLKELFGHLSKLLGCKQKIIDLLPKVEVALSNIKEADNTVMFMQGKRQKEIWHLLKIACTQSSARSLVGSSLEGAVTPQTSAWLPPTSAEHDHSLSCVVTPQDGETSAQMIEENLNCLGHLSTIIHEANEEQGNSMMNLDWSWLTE
Protocol: as §1

GSK3α = GSK3α (Homo sapiens, UniProt P49840); test: Kinome profiling GSK3α; details: read-out: Inhibitory activity GSK3α; for inhibition at 0.1 µM: 100 nM
Protocol: as §1

CSK = CSK (Homo sapiens, UniProt P41240); test: Kinome profiling CSK; details: read-out: Inhibitory activity CSK; for inhibition at 0.1 µM: 100 nM
Protocol: as §1

Sequence of LTK (P29376 17-864): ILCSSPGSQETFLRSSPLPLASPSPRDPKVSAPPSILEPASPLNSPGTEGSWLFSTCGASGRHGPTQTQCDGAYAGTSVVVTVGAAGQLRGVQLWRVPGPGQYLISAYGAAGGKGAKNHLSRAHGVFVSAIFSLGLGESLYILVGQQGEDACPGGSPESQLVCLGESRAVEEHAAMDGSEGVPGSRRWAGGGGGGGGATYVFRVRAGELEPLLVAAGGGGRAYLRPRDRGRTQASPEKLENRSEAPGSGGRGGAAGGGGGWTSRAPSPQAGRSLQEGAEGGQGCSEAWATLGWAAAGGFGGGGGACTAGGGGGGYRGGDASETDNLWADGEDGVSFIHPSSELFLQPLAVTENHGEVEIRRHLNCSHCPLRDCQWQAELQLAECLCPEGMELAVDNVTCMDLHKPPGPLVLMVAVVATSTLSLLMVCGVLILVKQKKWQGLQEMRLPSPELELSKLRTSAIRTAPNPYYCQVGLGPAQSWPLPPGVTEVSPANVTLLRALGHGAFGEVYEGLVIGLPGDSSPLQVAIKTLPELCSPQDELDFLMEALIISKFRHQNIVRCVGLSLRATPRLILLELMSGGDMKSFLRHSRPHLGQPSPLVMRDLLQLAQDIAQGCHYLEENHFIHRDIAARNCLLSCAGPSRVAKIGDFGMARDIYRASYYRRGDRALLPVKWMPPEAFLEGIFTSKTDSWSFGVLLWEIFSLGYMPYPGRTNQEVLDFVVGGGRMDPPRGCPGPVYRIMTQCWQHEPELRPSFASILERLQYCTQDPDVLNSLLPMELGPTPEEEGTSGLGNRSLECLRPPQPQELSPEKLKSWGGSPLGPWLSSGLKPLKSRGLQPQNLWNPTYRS
Sequence of KDR (P35968 20-1356): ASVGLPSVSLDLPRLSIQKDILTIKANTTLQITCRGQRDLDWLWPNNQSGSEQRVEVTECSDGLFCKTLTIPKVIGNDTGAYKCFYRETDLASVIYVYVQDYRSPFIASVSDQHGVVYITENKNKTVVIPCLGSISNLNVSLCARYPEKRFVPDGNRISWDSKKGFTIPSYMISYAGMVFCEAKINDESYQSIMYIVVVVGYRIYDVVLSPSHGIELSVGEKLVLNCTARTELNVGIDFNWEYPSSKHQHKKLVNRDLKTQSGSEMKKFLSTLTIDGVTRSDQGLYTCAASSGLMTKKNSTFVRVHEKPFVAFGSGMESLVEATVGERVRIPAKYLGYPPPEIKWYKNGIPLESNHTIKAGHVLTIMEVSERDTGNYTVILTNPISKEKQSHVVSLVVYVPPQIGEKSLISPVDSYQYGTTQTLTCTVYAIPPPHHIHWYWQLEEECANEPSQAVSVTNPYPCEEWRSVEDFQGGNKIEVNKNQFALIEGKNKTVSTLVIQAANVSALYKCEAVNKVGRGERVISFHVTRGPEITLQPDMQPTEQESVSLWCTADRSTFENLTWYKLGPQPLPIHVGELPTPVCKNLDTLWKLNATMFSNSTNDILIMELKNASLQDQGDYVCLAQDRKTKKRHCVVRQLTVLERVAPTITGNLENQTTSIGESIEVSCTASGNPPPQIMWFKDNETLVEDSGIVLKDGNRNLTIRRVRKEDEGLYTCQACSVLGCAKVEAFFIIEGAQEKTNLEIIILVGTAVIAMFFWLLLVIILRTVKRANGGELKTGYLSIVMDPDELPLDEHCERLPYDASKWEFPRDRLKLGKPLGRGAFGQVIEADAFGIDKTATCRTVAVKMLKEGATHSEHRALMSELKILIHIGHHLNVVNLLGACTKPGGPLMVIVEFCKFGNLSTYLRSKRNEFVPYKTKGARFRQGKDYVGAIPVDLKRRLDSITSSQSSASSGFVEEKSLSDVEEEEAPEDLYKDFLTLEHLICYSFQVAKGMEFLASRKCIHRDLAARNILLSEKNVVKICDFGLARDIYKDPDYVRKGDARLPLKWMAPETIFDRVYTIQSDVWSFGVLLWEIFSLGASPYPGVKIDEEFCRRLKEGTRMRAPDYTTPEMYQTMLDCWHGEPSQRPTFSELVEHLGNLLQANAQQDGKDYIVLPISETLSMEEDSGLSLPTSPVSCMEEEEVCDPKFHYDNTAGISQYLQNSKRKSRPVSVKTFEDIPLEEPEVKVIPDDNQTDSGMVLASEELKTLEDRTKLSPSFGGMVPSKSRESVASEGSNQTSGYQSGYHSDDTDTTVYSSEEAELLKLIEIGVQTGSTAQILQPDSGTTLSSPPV
Sequence of PHKγ1 (Q16816 whole entry): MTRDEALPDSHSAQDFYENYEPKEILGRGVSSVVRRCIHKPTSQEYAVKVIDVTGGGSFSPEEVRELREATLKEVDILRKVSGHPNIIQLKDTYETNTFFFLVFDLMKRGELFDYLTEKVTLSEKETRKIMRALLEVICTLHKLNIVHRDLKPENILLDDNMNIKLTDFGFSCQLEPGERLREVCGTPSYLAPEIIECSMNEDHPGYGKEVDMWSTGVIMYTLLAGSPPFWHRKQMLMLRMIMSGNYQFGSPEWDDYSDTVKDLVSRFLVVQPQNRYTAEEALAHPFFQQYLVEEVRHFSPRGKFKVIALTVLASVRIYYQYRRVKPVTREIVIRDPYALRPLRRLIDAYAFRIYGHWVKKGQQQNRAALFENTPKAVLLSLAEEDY
Sequence of GSK3β (P49841 whole entry): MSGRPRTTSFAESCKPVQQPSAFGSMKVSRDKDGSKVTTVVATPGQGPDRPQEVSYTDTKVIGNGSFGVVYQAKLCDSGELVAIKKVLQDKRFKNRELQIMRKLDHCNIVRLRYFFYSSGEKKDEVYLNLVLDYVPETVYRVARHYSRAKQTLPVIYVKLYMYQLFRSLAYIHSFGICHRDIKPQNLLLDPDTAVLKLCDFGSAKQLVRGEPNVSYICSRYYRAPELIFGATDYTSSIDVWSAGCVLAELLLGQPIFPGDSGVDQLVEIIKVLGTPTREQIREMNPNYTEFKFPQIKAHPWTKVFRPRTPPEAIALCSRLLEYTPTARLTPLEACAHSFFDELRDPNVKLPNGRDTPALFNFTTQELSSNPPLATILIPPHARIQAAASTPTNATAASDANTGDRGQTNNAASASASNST
Sequence of JAK2 (O60674 whole entry): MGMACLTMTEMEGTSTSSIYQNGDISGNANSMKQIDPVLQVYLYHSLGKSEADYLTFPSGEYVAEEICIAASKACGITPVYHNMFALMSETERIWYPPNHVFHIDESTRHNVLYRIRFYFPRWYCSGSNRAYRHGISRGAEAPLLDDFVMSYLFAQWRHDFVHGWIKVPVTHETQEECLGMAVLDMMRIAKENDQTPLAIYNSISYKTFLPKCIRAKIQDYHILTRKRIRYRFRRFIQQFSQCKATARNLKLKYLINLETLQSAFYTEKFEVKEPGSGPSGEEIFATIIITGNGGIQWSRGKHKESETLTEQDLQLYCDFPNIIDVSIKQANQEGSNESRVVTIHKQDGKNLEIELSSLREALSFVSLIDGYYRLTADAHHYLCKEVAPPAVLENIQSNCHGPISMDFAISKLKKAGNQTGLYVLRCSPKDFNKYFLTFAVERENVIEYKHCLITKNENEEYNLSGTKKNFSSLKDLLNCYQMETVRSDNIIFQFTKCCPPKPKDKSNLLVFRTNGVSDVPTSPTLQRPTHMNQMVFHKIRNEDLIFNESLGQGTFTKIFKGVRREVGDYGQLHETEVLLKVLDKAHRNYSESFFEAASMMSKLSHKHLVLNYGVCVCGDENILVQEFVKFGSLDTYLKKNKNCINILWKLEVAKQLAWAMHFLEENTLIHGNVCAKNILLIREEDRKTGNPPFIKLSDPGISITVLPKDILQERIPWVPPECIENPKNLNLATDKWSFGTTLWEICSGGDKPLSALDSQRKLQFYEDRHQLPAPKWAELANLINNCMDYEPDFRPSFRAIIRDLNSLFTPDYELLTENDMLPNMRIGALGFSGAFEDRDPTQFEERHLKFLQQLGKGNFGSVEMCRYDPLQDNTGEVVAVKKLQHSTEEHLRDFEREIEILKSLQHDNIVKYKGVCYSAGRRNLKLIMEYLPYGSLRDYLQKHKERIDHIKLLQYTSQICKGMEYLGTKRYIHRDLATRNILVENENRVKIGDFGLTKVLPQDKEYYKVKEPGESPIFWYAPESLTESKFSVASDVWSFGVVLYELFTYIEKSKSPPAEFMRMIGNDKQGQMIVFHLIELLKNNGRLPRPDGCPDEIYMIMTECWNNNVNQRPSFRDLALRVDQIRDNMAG
Sequence of AKT3 (Q9Y243 whole entry): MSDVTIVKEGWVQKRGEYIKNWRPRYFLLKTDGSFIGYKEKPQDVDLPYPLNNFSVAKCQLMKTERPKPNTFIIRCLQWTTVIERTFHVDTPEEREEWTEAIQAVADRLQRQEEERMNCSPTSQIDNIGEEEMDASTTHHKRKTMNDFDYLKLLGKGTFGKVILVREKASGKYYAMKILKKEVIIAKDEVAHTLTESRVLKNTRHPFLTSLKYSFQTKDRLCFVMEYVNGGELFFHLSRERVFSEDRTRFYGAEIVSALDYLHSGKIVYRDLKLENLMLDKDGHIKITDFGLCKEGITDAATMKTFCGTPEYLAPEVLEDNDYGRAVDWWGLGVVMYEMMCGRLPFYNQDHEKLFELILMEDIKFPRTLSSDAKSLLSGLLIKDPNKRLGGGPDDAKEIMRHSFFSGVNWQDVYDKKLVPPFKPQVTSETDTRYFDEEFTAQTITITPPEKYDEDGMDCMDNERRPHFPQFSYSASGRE
Sequence of CSK (P41240 whole entry): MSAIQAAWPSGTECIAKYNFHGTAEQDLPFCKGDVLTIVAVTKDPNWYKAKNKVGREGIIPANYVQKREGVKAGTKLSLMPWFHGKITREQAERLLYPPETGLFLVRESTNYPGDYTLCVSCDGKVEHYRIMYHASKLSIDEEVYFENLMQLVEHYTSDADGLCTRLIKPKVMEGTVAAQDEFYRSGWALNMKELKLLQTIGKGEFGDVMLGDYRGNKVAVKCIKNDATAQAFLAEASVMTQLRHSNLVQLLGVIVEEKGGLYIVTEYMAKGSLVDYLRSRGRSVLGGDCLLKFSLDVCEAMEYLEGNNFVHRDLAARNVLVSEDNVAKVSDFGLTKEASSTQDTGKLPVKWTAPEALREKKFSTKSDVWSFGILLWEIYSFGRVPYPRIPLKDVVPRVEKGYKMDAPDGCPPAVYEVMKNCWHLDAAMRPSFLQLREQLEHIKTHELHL

Structure (SMILES)	inhibition at 0.1 µM (JAK2) [%]	inhibition at 1 µM (JAK2) [%]	inhibition at 0.1 µM (KDR) [%]	inhibition at 1 µM (KDR) [%]	inhibition at 0.1 µM (AKT3) [%]	inhibition at 1 µM (AKT3) [%]	inhibition at 0.1 µM (LTK) [%]	inhibition at 1 µM (LTK) [%]	inhibition at 0.1 µM (GSK3β) [%]	inhibition at 1 µM (GSK3β) [%]	inhibition at 0.1 µM (PHKγ1) [%]	inhibition at 1 µM (PHKγ1) [%]	inhibition at 0.1 µM (FLT-3) [%]	inhibition at 1 µM (FLT-3) [%]	inhibition at 0.1 µM (IKK-α) [%]	inhibition at 1 µM (IKK-α) [%]	inhibition at 0.1 µM (GSK3α) [%]	inhibition at 1 µM (GSK3α) [%]	inhibition at 0.1 µM (CSK) [%]	inhibition at 1 µM (CSK) [%]
COc1cc(-c2cc(-c3ccc(N4CCNCC4)cc3)cnc2N)cc(OC)c1OC [Compound 15, 5-(4-(piperazin-1-yl)phenyl)-3-(3,4,5-trimethoxyphenyl)pyridin-2-amine]	0	0	6	22	0	2	13	60	0	-1	3	4	1	5	-1	-2	1	0	10	36
COc1cc(-c2cc(-c3ccc(N4CCNCC4)cc3)cnc2C)cc(OC)c1OC [Compound 10, 1-(4-(6-methyl-5-(3,4,5-trimethoxyphenyl)pyridin-3-yl)phenyl)piperazine]	5	4	0	3	1	1	4	10	2	4	3	3	3	18	3	4	1	1	4	5
